Reference: PMC6697623 (2019)

Test system: Corn wild type (RNA 1) (RNA, aptamer) GGCGCGAGGAAGGAGGUCUGAGGAGGUCACUGCGCC
Assay: fluorescence titration, RNA varied
Settings: 100 mM KCl, 10 mM MgCl2; pH 7.5, 20 °C; 2.5 μM TO

In the case of `CN1C(=Cc2cc[n+](C)c3ccccc23)Sc2ccccc21`, the “apparent Kd” value was 1.4 µM.
